Measurements taken from patent US6358885B1, “Substituted phenylheterocyclic herbicides” (Mississippi State University, priority 1992, dated 2002).

Tests used:
barley [1] = test: Test B preemergence/postemergence greenhouse plant response rating 0 to 10; format: in vivo, Hordeum vulgare; details: for Plant response rating, Barley: 0 to 10 scale
Outline: (§1)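 Test chemicals, dissolved in a non-phytotoxic solvent, were applied to soil at planting and, at the same time, over foliage of seedlings at the one to four leaf stage.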

bedstraw [2] = test: as above; format: in vivo, Galium aparine; details: for Plant response rating, Bedstraw: 0 to 10 scale
Outline: as §1

blackgrass = test: as above; format: in vivo, Alopecurus myosuroides; details: for Plant response rating, Blackgrass: 0 to 10 scale
Outline: as §1

cheatgrass = test: as above; format: in vivo, Bromus secalinus; details: for Plant response rating, Cheatgrass: 0 to 10 scale
Outline: as §1

cotton = test: as above; format: in vivo, Gossypium hirsutum; details: for Plant response rating, Cotton: 0 to 10 scale
Outline: as §1

rape = test: as above; format: in vivo, Brassica napus; details: for Plant response rating, Rape: 0 to 10 scale
Outline: as §1

rice = test: as above; format: in vivo, Oryza sativa; details: for Plant response rating, Rice: 0 to 10 scale
Outline: as §1

sorghum = test: as above; format: in vivo, Sorghum bicolor; details: for Plant response rating, Sorghum: 0 to 10 scale
Outline: as §1

wheat = test: as above; format: in vivo, Triticum aestivum; details: for Plant response rating, Wheat: 0 to 10 scale
Outline: as §1

barley [3] = test: Test C preemergence/postemergence greenhouse plant response rating 0 to 100; format: in vivo, Hordeum vulgare; details: for Plant response rating Barley Igri: 125 g/ha, 0 to 100 scale
Outline: (§2)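 Compounds in non-phytotoxic solvent went onto sandy loam before emergence (seeded one day earlier) or onto plants at the one-to-four leaf stage. Duck salad was treated via flood water (~2.5 cm, maintained) over silt loam.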

bedstraw [4] = test: as above; format: in vivo, Galium aparine; details: for Plant response rating, Bedstraw: 125 g/ha, 0 to 100 scale
Outline: as §2

`CCOCOc1cc(-c2nn3c(c2Cl)CCCC3)c(F)cc1Cl` [Compound 59] was tested, and the “Plant response rating, Barley” value (barley [1]; POSTEMERGENCE, Rate 50 g/ha) was 4, the “Plant response rating, Barley” value (barley [1]; PREEMERGENCE, Rate 50 g/ha) was 2 and the “Plant response rating (0 to 10 scale), Barley” value (barley [1]; PREEMERGENCE, Rate 200 g/ha) was 5. For the same compound, the “Plant response rating, Barley” value (barley [1]; Rate 200 g/ha, POSTEMERGENCE) was 4, the “Plant response rating, Bedstraw” value (bedstraw [2]; POSTEMERGENCE, Rate 50 g/ha) was 10 and the “Plant response rating, Bedstraw” value (bedstraw [2]; PREEMERGENCE, Rate 50 g/ha) was 8. The “Plant response rating (0 to 10 scale), Bedstraw” value (bedstraw [2]; PREEMERGENCE, Rate 200 g/ha) was 10, the “Plant response rating, Bedstraw” value (bedstraw [2]; Rate 200 g/ha, POSTEMERGENCE) was 8 and the “Plant response rating, Blackgrass” value (blackgrass; POSTEMERGENCE, Rate 50 g/ha) was 4. The “Plant response rating, Blackgrass” value (blackgrass; PREEMERGENCE, Rate 50 g/ha) was 4, the “Plant response rating (0 to 10 scale), Blackgrass” value (blackgrass; PREEMERGENCE, Rate 200 g/ha) was 5 and the “Plant response rating, Blackgrass” value (blackgrass; Rate 200 g/ha, POSTEMERGENCE) was 5. For the same compound, the “Plant response rating, Cheatgrass” value (cheatgrass; POSTEMERGENCE, Rate 50 g/ha) was 4, the “Plant response rating, Cheatgrass” value (cheatgrass; PREEMERGENCE, Rate 50 g/ha) was 4 and the “Plant response rating (0 to 10 scale), Cheatgrass” value (cheatgrass; PREEMERGENCE, Rate 200 g/ha) was 5. For the same compound, the “Plant response rating, Cheatgrass” value (cheatgrass; Rate 200 g/ha, POSTEMERGENCE) was 6, the “Plant response rating, Cotton” value (cotton; POSTEMERGENCE, Rate 50 g/ha) was 10 and the “Plant response rating, Cotton” value (cotton; PREEMERGENCE, Rate 50 g/ha) was 4. For the same compound, the “Plant response rating (0 to 10 scale), Cotton” value (cotton; PREEMERGENCE, Rate 200 g/ha) was 7, the “Plant response rating, Cotton” value (cotton; Rate 200 g/ha, POSTEMERGENCE) was 10 and the “Plant response rating, Rape” value (rape; POSTEMERGENCE, Rate 50 g/ha) was 10. For the same compound, the “Plant response rating, Rape” value (rape; PREEMERGENCE, Rate 50 g/ha) was 5, the “Plant response rating (0 to 10 scale), Rape” value (rape; PREEMERGENCE, Rate 200 g/ha) was 10 and the “Plant response rating, Rape” value (rape; Rate 200 g/ha, POSTEMERGENCE) was 10. The “Plant response rating, Rice” value (rice; POSTEMERGENCE, Rate 50 g/ha) was 5, the “Plant response rating, Rice” value (rice; PREEMERGENCE, Rate 50 g/ha) was 0 and the “Plant response rating (0 to 10 scale), Rice” value (rice; PREEMERGENCE, Rate 200 g/ha) was 1. For the same compound, the “Plant response rating, Rice” value (rice; Rate 200 g/ha, POSTEMERGENCE) was 5, the “Plant response rating, Sorghum” value (sorghum; POSTEMERGENCE, Rate 50 g/ha) was 3 and the “Plant response rating, Sorghum” value (sorghum; PREEMERGENCE, Rate 50 g/ha) was 1. The “Plant response rating (0 to 10 scale), Sorghum” value (sorghum; PREEMERGENCE, Rate 200 g/ha) was 5, the “Plant response rating, Sorghum” value (sorghum; Rate 200 g/ha, POSTEMERGENCE) was 4 and the “Plant response rating, Wheat” value (wheat; POSTEMERGENCE, Rate 50 g/ha) was 7. The “Plant response rating, Wheat” value (wheat; PREEMERGENCE, Rate 50 g/ha) was 4, the “Plant response rating (0 to 10 scale), Wheat” value (wheat; PREEMERGENCE, Rate 200 g/ha) was 4 and the “Plant response rating, Wheat” value (wheat; Rate 200 g/ha, POSTEMERGENCE) was 6. The “Plant response rating Barley Igri” value (barley [3]; POSTEMERGENCE) was 60, the “Plant response rating (0 to 100), Barley Igri” value (barley [3]; POSTEMERGENCE, Rate 2 g/ha) was 30 and the “Plant response rating Barley Igri” value (barley [3]; PREEMERGENCE) was 10. The “Plant response rating (0 to 100), Barley Igri” value (barley [3]; PREEMERGENCE, Rate 2 g/ha) was 0, the “Plant response rating (0 to 100), Barley Igri” value (barley [3]; Rate 8 g/ha, POSTEMERGENCE) was 40 and the “Plant response rating (0 to 100), Barley Igri” value (barley [3]; Rate 8 g/ha, PREEMERGENCE) was 0. For the same compound, the “Plant response rating (0 to 100), Barley Igri” value (barley [3]; Rate 31 g/ha, POSTEMERGENCE) was 50, the “Plant response rating (0 to 100), Barley Igri” value (barley [3]; Rate 31 g/ha, PREEMERGENCE) was 0 and the “Plant response rating, Bedstraw” value (bedstraw [4]; POSTEMERGENCE) was 100. For the same compound, the “Plant response rating (0 to 100), Bedstraw” value (bedstraw [4]; POSTEMERGENCE, Rate 2 g/ha) was 50, the “Plant response rating, Bedstraw” value (bedstraw [4]; PREEMERGENCE) was 70 and the “Plant response rating (0 to 100), Bedstraw” value (bedstraw [4]; PREEMERGENCE, Rate 2 g/ha) was 0. The “Plant response rating (0 to 100), Bedstraw” value (bedstraw [4]; Rate 8 g/ha, POSTEMERGENCE) was 75, the “Plant response rating (0 to 100), Bedstraw” value (bedstraw [4]; Rate 8 g/ha, PREEMERGENCE) was 0 and the “Plant response rating (0 to 100), Bedstraw” value (bedstraw [4]; Rate 31 g/ha, POSTEMERGENCE) was 100. For the same compound, the “Plant response rating (0 to 100), Bedstraw” value (bedstraw [4]; Rate 31 g/ha, PREEMERGENCE) was 50.
